The values that follow come from PMC2527638 (Toxicological Sciences, 2008).

pEC50: −log10 of the molar value.

One assay relates to FLAG-ERβ. The class given is cell-based, human. The note with it: in the presence of 1000 ng tetracycline/ml, 24 h.
The target in the next assay is T1, ERα (Homo sapiens, UniProt P03372).
T1 sequence (P03372 1-595): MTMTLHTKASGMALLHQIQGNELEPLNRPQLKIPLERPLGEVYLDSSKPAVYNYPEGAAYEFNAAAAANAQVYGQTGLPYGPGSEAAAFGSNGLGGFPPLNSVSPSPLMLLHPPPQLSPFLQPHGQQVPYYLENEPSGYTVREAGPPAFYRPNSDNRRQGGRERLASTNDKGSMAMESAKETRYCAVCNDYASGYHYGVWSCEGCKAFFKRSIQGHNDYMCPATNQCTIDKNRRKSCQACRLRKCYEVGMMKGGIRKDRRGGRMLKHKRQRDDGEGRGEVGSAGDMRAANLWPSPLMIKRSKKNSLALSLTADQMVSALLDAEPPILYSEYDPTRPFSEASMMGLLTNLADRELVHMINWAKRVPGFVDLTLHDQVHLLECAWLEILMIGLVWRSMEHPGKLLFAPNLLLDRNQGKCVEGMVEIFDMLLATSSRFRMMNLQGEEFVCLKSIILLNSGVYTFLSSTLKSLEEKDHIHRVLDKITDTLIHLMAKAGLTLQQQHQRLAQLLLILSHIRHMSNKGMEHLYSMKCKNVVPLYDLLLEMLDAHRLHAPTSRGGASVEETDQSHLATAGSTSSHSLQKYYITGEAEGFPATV
The assay is described as follows: ERα-specific U2OS reporter gene assay. The class given is cell-based. A general note: A reporter such as luciferase makes a cellular process visible.

The target in another assay is ERβ (Homo sapiens, UniProt Q92731). The assay is described as follows: ERβ-specific U2OS reporter gene assay. The class given is cell-based.
Sequence of ERβ (Q92731 whole entry): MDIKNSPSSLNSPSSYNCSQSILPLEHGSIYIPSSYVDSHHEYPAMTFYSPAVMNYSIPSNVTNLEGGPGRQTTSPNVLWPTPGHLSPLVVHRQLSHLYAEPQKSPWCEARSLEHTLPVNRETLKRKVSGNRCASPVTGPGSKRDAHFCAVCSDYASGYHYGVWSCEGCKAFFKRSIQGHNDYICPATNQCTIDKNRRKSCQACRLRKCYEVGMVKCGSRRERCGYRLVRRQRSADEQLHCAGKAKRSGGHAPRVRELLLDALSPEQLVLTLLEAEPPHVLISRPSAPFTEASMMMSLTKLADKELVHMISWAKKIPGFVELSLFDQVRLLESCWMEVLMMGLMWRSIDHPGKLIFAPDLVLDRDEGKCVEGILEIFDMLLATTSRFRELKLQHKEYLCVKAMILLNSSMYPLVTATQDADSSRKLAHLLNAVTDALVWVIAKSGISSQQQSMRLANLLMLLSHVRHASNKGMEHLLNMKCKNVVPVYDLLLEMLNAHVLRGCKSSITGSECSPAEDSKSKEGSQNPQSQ

Take `CN(C)[C@@H]1C(O)=C(C(N)=O)C(=O)[C@@]2(O)C(O)=C3C(=O)c4c(O)cccc4[C@@](C)(O)[C@H]3C[C@@H]12` [tetracycline, Tetracycline]: the FLAG-ERβ protein expression result with FLAG-ERβ is given as “No detectable FLAG-ERβ protein”.

A word on the pEC50: it is the negative decadic logarithm of the EC50, by convention in mol/L. A higher pEC50 goes with a low EC50. Take `CCCc1c(-c2ccc(O)cc2)nn(-c2ccc(O)cc2)c1-c1ccc(O)cc1` [PPT, 4,4′,4″-(4-propyl-[1H]pyrazole-1,3,5-triyl) Tris-phenol]: the pEC50 on ERα was 9.85. The “Transcription of the reporter gene in the ERβ-U2OS-Luc cell line” value on ERβ was “unable to induce any transcription”.
